# Reference: patent publication US20260248918A1, “COMPOSITIONS AND METHODS OF SUPPRESSING AVERSIVENESS OF PHARMACEUTICALS AND INGESTIBLE MATERIALS” (Monell Chemical Senses Center, priority 2019, published 2026)
# Test system: human subjects
# Assay: Human sensory testing (gLMS) of API bitterness with blocker, as pre-rinse or admixture
# Format: in vivo
# From the text: Methods of evaluating the sensory properties of the API and admixtures with the blocker compounds of Formula A are adopted from Breslin PA, and Tharp CD, “Reduction of saltiness and bitterness after a chlorhexidine rinse,” Chem Senses. 2001 February; 26(2):105-16. More details are illustrated below.
# Subjects participate in the study after providing informed consent. Gender of the subjects is balanced between male and female. The subjects are adults with ages ranging from 20 years old to 50 years old. […] The participants are asked to refrain from eating, drinking, or chewing gum for 1 hr prior to testing. Subjects are trained to use the General Labeled Magnitude Scale (gLMS) following standard published procedures. See. e.g., Breslin P A, and Tharp C D. “Reduction of saltiness and bitterness after a chlorhexidine rinse,” Chem Senses. 2001 February; 26(2): 105-16; Keast and Breslin, “Bitterness suppression with zinc sulfate and Na-cyclamate: a model of combined peripheral and central neural approaches to flavor modification.” Pharm Res. 2005 November; 22(11):1970-7. Epub 2005 Aug. 26; Green et al, “Evaluating the ‘Labeled Magnitude Scale’ for measuring sensations of taste and smell.” Chem Senses. 1996 June; 21(3):323-34; Barry G. Green, et al, “Derivation and evaluation of a semantic scale of oral sensation magnitude with apparent ratio properties,” Chemical Senses, Volume 18, Issue 6, 1 Dec. 1993, Pages 683-702; and Bartoshuk L M, “Comparing sensory experiences across individuals: recent psychophysical advances illuminate genetic variation in taste perception.” Chem Senses. 2000 August; 25(4):447-60.
# The selected API (in racemic or L form as applicable) is diluted/dissolved in deionized (di) filtered water upon use into various concentrations. […] The API is prepared and dissolved in deionized filtered water or in […] 6-methylflavone to a final concentration. All solutions are stored on ice or at 4° C. to 8° C. and brought up to room temperature prior to testing.
# The following testing protocol is performed. The tested solutions are provided to the subjects in random order. Subjects rinsed with di water at least four times over a 2-minute period prior to tasting each solution. The subjects are instructed to wear nose clips to eliminate olfactory input, pour the whole solution in their mouth for 3-5 seconds, and rate the perceived sensation (including bitterness, sourness, astringency, burning, stinging and nausea) intensity of the solution while it remained in the mouth, prior to expectorating. Taste intensity is recorded on a computerized gLMS, analyzed and plotted.
compound,measurement,setting,value
Cc1ccc2oc(-c3ccccc3)cc(=O)c2c1 [6-methylflavone],Blocking the bitter taste of piperaquine and TAF,"admixture, subset of human subjects",effective antagonist
same,Suppression of TAF bitterness,"another subject, FIGS. 11A/11B, 0.5 mg/mL TAF, pre-rinse then admixture, blocker 100 μM",worked
same,Suppression of TAF bitterness,"another subject, FIGS. 11A/11B, 0.5 mg/mL TAF, pre-rinse then admixture, blocker 1 mM",worked even better
same,Suppression of TAF bitterness,"one subject, FIGS. 8A/8B, 0.5 mg/mL TAF with and without 100 μM blocker",significant suppression
same,Suppression of TAF bitterness,"one subject, FIGS. 9A/9B, 0.5 mg/mL TAF alone vs pre-rinse vs pre-rinse containing 100 μM blocker",did not show significant suppression
same,Suppression of TAF bitterness,"one subject, FIGS. 10A/10B, 0.5 mg/mL TAF, pre-rinse then admixture, blocker 100 μM",no bitterness suppression
same,Average perceived bitterness intensity of piperaquine,"piperaquine 8 mg/mL treated with 100 μM blocker, FIG. 6",affected
same,Blocking effect for TAF and piperaquine with added pre-rinse,"pre-rinse with the blocker added, compared with admixture alone",stronger
